Source: US20150087673A1, “METHODS FOR USING AND BIOMARKERS FOR AMPK-ACTIVATING COMPOUNDS” (RIGEL PHARMACEUTICALS, INC., priority 2013, published 2015)
pEC50: −log10 of the molar value.

tested on: AMPK; assay: AMPK activation assay (enzyme-linked immunosorbent assay); assay type: cell-based
In short: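 Compounds were tested for their capacity to activate the kinase using standard, commercially available kit reagents and procedures.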

| pEC50 | Structure (SMILES) |
| --- | --- |
| > 6.30 | O=C(Nc1cccc(Oc2ccccc2)c1)c1ccc(C(=O)N2CCN(Cc3ccc(F)cc3)CC2)cn1 [Compound 21, 5-(4-(4-fluorobenzyl)piperazine-1-carbonyl)-N-(3-phenoxyphenyl)picolinamide] |
| > 6.30 | O=C(NC1CCN(Cc2ccc(OC(F)(F)F)cc2)CC1)c1ccc(C(=O)N2CCC(C(=O)c3ccc(N4CCCC4)cc3)CC2)nc1 [Compound 440, 6-(4-(4-(pyrrolidin-1-yl)benzoyl)piperidine-1-carbonyl)-N-(1-(4-(trifluoromethoxy)benzyl)piperidin-4-yl)nicotinamide] |
| 5.30 to 6.00 | CS(=O)(=O)c1ccc(N2CCC(NC(=O)c3ccc(C(=O)N4CCN(Cc5ccc(F)cc5)CC4)nc3)CC2)cc1 [Compound 421, 6-(4-(4-fluorobenzyl)piperazine-1-carbonyl)-N-(1-(4-(methylsulfonyl)phenyl)piperidin-4-yl)nicotinamide] |
| > 6.30 | COc1ccc(N2CCC(NC(=O)c3ccc(C(=O)N4CCC(Oc5ccc(C#N)cc5)CC4)nc3)CC2)cc1 [Compound 423, 6-(4-(4-cyanophenoxy)piperidine-1-carbonyl)-N-(1-(4-methoxyphenyl)piperidin-4-yl)nicotinamide] |
| > 6.30 | O=C(NC1CCN(Cc2cccc(OC(F)(F)F)c2)CC1)c1ccc(C(=O)N2CCC(C(=O)c3ccc(N4CCCC4)cc3)CC2)nc1 [Compound 441, 6-(4-(4-(pyrrolidin-1-yl)benzoyl)piperidine-1-carbonyl)-N-(1-(3-(trifluoromethoxy)benzyl)piperidin-4-yl)nicotinamide] |
| 6.00 to 6.30 | N#Cc1ccc(CN2CCC(NC(=O)c3ccc(C(=O)N4CCC(Cc5ccc(C(N)=O)cc5)CC4)cn3)CC2)cc1 [Compound 141, 5-(4-(4-carbamoylbenzyl)piperidine-1-carbonyl)-N-(1-(4-cyanobenzyl)piperidin-4-yl)picolinamide] |
| > 6.30 | CS(=O)(=O)c1ccc(OC2CCN(C(=O)c3ccc(C(=O)NC4CCN(Cc5ccc(F)cc5)CC4)nc3)CC2)cc1 [Compound 226, N-(1-(4-fluorobenzyl)piperidin-4-yl)-5-(4-(4-(methylsulfonyl)phenoxy)piperidine-1-carbonyl)picolinamide] |
| 5.00 to 5.30 | O=C(Nc1ccccc1)c1ccc(C(=O)N2CCN(Cc3ccc(F)cc3)CC2)cn1 [Compound 107, 5-(4-(4-fluorobenzyl)piperazine-1-carbonyl)-N-phenylpicolinamide] |
| 5.30 to 6.00 | O=C(c1ccc(Nc2ccc(Oc3ccccc3)cc2)nc1)N1CCN(Cc2ccc(F)cc2)CC1 [Compound 34, (4-(4-fluorobenzyl)piperazin-1-yl)(6-(4-phenoxyphenylamino)pyridin-3-yl)methanone] |
| 6.00 to 6.30 | N#Cc1ccc(CN2CCc3ccc(NC(=O)c4ccc(C(=O)NCc5ccc(F)cc5)cn4)cc3C2)cc1 [Compound 144, N2-(2-(4-cyanobenzyl)-1,2,3,4-tetrahydroisoquinolin-7-yl)-N5-(4-fluorobenzyl)pyridine-2,5-dicarboxamide] |
| > 6.30 | O=C(Nc1ccc(Oc2ccc(F)cc2)nc1)c1ccc(C(=O)N2CCC(C(=O)c3ccc(F)cc3F)CC2)cn1 [Compound 342, 5-(4-(2,4-difluorobenzoyl)piperidine-1-carbonyl)-N-(6-(4-fluorophenoxy)pyridin-3-yl)picolinamide] |
| < 5.00 | O=C(c1cccc(C(=O)N2CCN(c3ccccc3)CC2)n1)N1CCN(Cc2ccc(F)cc2)CC1 [Compound 94, (4-(4-fluorobenzyl)piperazin-1-yl)(6-(4-phenylpiperazine-1-carbonyl)pyridin-2-yl)methanone] |
| 5.30 to 6.00 | O=C(NC1CCN(CC2CCCCC2)CC1)c1ccc(C(=O)N2CCN(Cc3ccc(F)cc3)CC2)cn1 [Compound 13, N-(1-(cyclohexylmethyl)piperidin-4-yl)-5-(4-(4-fluorobenzyl)piperazine-1-carbonyl)picolinamide] |
| 5.30 to 6.00 | N#Cc1ccc(CN2CCC(NC(=O)c3ccc(C(=O)N4CCN(C(=O)C5CCCCC5)CC4)cn3)CC2)cc1 [Compound 89, N-(1-(4-cyanobenzyl)piperidin-4-yl)-5-(4-(cyclohexanecarbonyl)piperazine-1-carbonyl)picolinamide] |
| 5.00 to 5.30 | O=C(Nc1cccc(-c2ccccc2)c1)c1ccc(C(=O)NC2CCN(Cc3ccccc3)CC2)nc1 [Compound 106, N2-(1-benzylpiperidin-4-yl)-N5-(biphenyl-3-yl)pyridine-2,5-dicarboxamide] |
| > 6.30 | COc1ccc(C(=O)C2CCN(C(=O)c3ccc(C(=O)NC4CCN(Cc5cc(F)cc(F)c5)CC4)nc3)CC2)cc1 [Compound 287, N-(1-(3,5-difluorobenzyl)piperidin-4-yl)-5-(4-(4-methoxybenzoyl)piperidine-1-carbonyl)picolinamide] |
| > 6.30 | CS(=O)(=O)c1ccc(CN2CCC(NC(=O)c3ccc(C(=O)N4CCC(C(=O)c5ccc(F)cc5F)CC4)nc3)CC2)cc1 [Compound 213, 6-(4-(2,4-difluorobenzoyl)piperidine-1-carbonyl)-N-(1-(4-(methylsulfonyl)benzyl)piperidin-4-yl)nicotinamide] |

| pEC50 | Structure (SMILES) |
| --- | --- |
| > 6.30 | N#Cc1ccc(CN2CCC(NC(=O)c3ccc(C(=O)N4CCC(Oc5ccc([N+](=O)[O-])cc5)CC4)nc3)CC2)cc1 [Compound 363, N-(1-(4-cyanobenzyl)piperidin-4-yl)-6-(4-(4-nitrophenoxy)piperidine-1-carbonyl)nicotinamide] |
| 6.00 to 6.30 | CC(C)(C)C(=O)N1CCN(C(=O)c2ccc(C(=O)NC3CCN(Cc4ccc(C#N)cc4)CC3)nc2)CC1 [Compound 81, N-(1-(4-cyanobenzyl)piperidin-4-yl)-5-(4-pivaloylpiperazine-1-carbonyl)picolinamide] |
| > 6.30 | O=C(NC1CCN(Cc2ccc(F)cc2)CC1)c1ccc(C(=O)N2CCC(Oc3ccc(F)cc3)CC2)cn1 [Compound 180, N-(1-(4-fluorobenzyl)piperidin-4-yl)-5-(4-(4-fluorophenoxy)piperidine-1-carbonyl)picolinamide] |
| > 6.30 | N#Cc1ccc(CN2CCC(NC(=O)c3ccc(C(=O)N4CCN(c5ccc(C(F)(F)F)cc5)CC4)cn3)CC2)cc1 [Compound 339, N-(1-(4-cyanobenzyl)piperidin-4-yl)-5-(4-(4-(trifluoromethyl)phenyl)piperazine-1-carbonyl)picolinamide] |
| > 6.30 | CC(=O)c1ccc(OC2CCN(C(=O)c3ccc(C(=O)Nc4ccc(Oc5ccc(F)cc5)nc4)nc3)CC2)cc1 [Compound 359, 5-(4-(4-acetylphenoxy)piperidine-1-carbonyl)-N-(6-(4-fluorophenoxy)pyridin-3-yl)picolinamide] |
| 5.30 to 6.00 | CC(=O)Nc1cccc(OC2CCN(C(=O)c3ccc(C(=O)Nc4ccc(Oc5ccc(F)cc5)nc4)cn3)CC2)c1 [Compound 414, 6-(4-(3-acetamidophenoxy)piperidine-1-carbonyl)-N-(6-(4-fluorophenoxy)pyridin-3-yl)nicotinamide] |
| > 6.30 | COc1ccc(C(=O)C2CCN(C(=O)c3ccc(C(=O)Nc4ccc(Oc5ccc(C#N)cc5)cn4)cn3)CC2)cc1 [Compound 468, N-(5-(4-cyanophenoxy)pyridin-2-yl)-6-(4-(4-methoxybenzoyl)piperidine-1-carbonyl)nicotinamide] |
| > 6.30 | COc1ccc(CN2CCC(NC(=O)c3ccc(C(=O)N4CCN(Cc5ccc(C#N)cc5)CC4)cn3)CC2)cc1 [Compound 285, 5-(4-(4-cyanobenzyl)piperazine-1-carbonyl)-N-(1-(4-methoxybenzyl)piperidin-4-yl)picolinamide] |
| 6.00 to 6.30 | N#Cc1ccc(CN2CCC(NC(=O)c3ccc(C(=O)N4CCC(Oc5cccc(NC(=O)C6CC6)c5)CC4)nc3)CC2)cc1 [Compound 431, N-(1-(4-cyanobenzyl)piperidin-4-yl)-6-(4-(3-(cyclopropanecarboxamido)phenoxy)piperidine-1-carbonyl)nicotinamide] |
| > 6.30 | O=C(Nc1ccc(Oc2ccc(F)cc2)nc1)c1ccc(C(=O)N2CCC(Oc3ccc(F)cc3)CC2)cn1 [Compound 273, 5-(4-(4-fluorophenoxy)piperidine-1-carbonyl)-N-(6-(4-fluorophenoxy)pyridin-3-yl)picolinamide] |
| > 6.30 | COc1cccc(CC2CCN(C(=O)c3ccc(C(=O)NC4CCN(Cc5ccc(C#N)cc5)CC4)nc3)CC2)c1 [Compound 147, N-(1-(4-cyanobenzyl)piperidin-4-yl)-5-(4-(3-methoxybenzyl)piperidine-1-carbonyl)picolinamide] |
| > 6.30 | COc1ccc(C(=O)C2CCN(C(=O)c3ccc(C(=O)N(C)C4CCN(Cc5ccc(OC(F)(F)F)cc5)CC4)cn3)CC2)cc1 [Compound 483, 6-(4-(4-methoxybenzoyl)piperidine-1-carbonyl)-N-methyl-N-(1-(4-(trifluoromethoxy)benzyl)piperidin-4-yl)nicotinamide] |
| > 6.30 | O=C(NC1CCN(Cc2ccccc2)CC1)c1ccc(C(=O)N2CCN(Cc3ccccc3)CC2)nc1 [Compound 74, 6-(4-benzylpiperazine-1-carbonyl)-N-(1-benzylpiperidin-4-yl)nicotinamide] |
| > 6.30 | Cc1cccc(Oc2ccc(NC(=O)c3ccc(C(=O)N4CCN(Cc5ccc(F)cc5)CC4)cn3)cc2)c1 [Compound 58, 5-(4-(4-fluorobenzyl)piperazine-1-carbonyl)-N-(4-(3-methylphenoxy)phenyl)picolinamide] |
| 6.00 to 6.30 | N#Cc1ccc(C(=O)N2CCC(NC(=O)c3ccc(C(=O)N4CCN(Cc5ccc(F)cc5)CC4)cn3)CC2)cc1 [Compound 4, N-(1-(4-cyanobenzoyl)piperidin-4-yl)-5-(4-(4-fluorobenzyl)piperazine-1-carbonyl)picolinamide] |
| > 6.30 | CS(=O)(=O)c1ccc(OC2CCN(C(=O)c3ccc(C(=O)Nc4ccc(Oc5ccc(F)cc5)nc4)cn3)CC2)cc1 [Compound 235, N-(6-(4-fluorophenoxy)pyridin-3-yl)-6-(4-(4-(methylsulfonyl)phenoxy)piperidine-1-carbonyl)nicotinamide] |
| 5.30 to 6.00 | O=C(NC1CCN(c2ccc(F)cc2)CC1)c1ccc(C(=O)N2CCN(Cc3ccc(F)cc3)CC2)nc1 [Compound 404, 6-(4-(4-fluorobenzyl)piperazine-1-carbonyl)-N-(1-(4-fluorophenyl)piperidin-4-yl)nicotinamide] |
